Reference: patent US7951815B2, “Substituted 1,4,8-triazaspiro [4,5]decan-2-one compounds” (Gruenenthal GmbH, priority 2004, dated 2011)
Counter-ions that a name gives are not always drawn.

biological target: T1, 5-HT transporter (Rattus norvegicus, UniProt P31652); assay: Inhibition of 5-HT uptake in rat brain synaptosomes; type: biochemical; settings: read-out: Uptake 5-HT, % inhibition; Table II; rat, 1 μM
T1 construct: synaptosomes of rat brain areas are freshly isolated; from tissue; host or cells: rat brain synaptosomes (P2 fraction) from marrow and pons
T1 sequence (P31652 whole entry): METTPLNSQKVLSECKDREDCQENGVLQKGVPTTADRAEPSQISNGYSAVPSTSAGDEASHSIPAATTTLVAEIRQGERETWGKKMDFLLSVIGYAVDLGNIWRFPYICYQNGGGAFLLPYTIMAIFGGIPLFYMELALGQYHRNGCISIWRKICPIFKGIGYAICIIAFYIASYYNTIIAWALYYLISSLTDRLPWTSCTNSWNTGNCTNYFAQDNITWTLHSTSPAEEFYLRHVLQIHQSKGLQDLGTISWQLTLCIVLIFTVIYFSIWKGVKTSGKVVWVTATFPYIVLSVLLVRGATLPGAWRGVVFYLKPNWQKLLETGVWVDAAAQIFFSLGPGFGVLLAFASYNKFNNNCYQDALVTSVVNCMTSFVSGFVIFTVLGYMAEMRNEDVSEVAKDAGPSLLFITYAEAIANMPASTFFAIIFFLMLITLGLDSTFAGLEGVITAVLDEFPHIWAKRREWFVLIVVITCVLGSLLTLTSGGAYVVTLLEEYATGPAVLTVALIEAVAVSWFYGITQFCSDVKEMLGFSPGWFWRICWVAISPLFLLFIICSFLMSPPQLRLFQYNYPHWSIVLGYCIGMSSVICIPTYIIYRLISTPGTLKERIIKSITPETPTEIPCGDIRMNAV

Work on `CCC(CC)C(=O)N1CCC2(CC1)NC(CCSC)C(=O)N2Cc1ccccc1` (stereo not shown) [Example 33, 1-benzyl-8-(2-ethylbutyryl)-3-(2-methylsulfanylethyl)-1,4,8-triazaspiro[4,5]decan-2-one hydrochloride] yielded an inhibition at 1 µM of 49%.

same assay, conditions: read-out: Uptake 5-HT, % inhibition; Table III; rat, 1 μM

First: CC(C)C1NC2(CCN(C(=O)c3ccco3)CC2)N(Cc2ccccc2)C1=O (stereo not shown) [Example 228, 1-Benzyl-8-(furan-2-carbonyl)-3-isopropyl-1,4,8-triazaspiro[4,5]decan-2-one]
Second: CC(C)C1NC2(CCN(C(=O)c3cccnc3Cl)CC2)N(Cc2ccccc2)C1=O (stereo not shown) [Example 157, 1-Benzyl-8-(2-chloropyridin-3-carbonyl)-3-isopropyl-1,4,8-triazaspiro[4,5]decan-2-one]
The inhibition at 1 µM of the first is lower: 32% for the first, 64% for the second.

First: CC(C)=CCN1C(=O)C(C(C)C)NC12CCN(C(=O)c1ccncc1)CC2 (stereo not shown) [Example 87, 3-Isopropyl-1-(3-methylbut-2-enyl)-8-(pyridin-4-carbonyl)-1,4,8-triazaspiro[4,5]decan-2-one]
Second: C=CCN1C(=O)C(C(C)C)NC12CCN(C(=O)c1ccccc1C)CC2 (stereo not shown) [Example 325, 1-Allyl-3-isopropyl-8-(2-methylbenzoyl)-1,4,8-triazaspiro[4,5]decan-2-one]
The inhibition at 1 µM of the first is higher: 56% for the first, 32% for the second.

Compared with `Cc1nnsc1C(=O)N1CCC2(CC1)NC(C(C)C)C(=O)N2Cc1ccccc1` (stereo not shown) [Example 216, 1-Benzyl-3-isopropyl-8-(4-methyl[1,2,3]thiadiazole-5-carbonyl)-1,4,8-triazaspiro[4,5]decan-2-one], `CCCCN1C(=O)C(Cc2ccccc2)NC12CCN(C(=O)c1snnc1C)CC2` (stereo not shown) [Example 243, 3-Benzyl-1-butyl-8-(4-methyl[1,2,3]thiadiazole-5-carbonyl)-1,4,8-triazaspiro[4,5]decan-2-one] is lower in inhibition at 1 µM: 55% for the first, 46% for the second.

Going from `C#CCN1C(=O)C(Cc2ccccc2)NC12CCN(C(=O)COC)CC2` (stereo not shown) [Example 81, 3-Benzyl-8-(2-methoxyacetyl)-1-prop-2-ynyl-1,4,8-triazaspiro[4,5]decan-2-one] to `C#CCN1C(=O)C(Cc2ccccc2)NC12CCN(C(=O)c1ccco1)CC2` (stereo not shown) [Example 186, 3-Benzyl-8-(furan-2-carbonyl)-1-prop-2-ynyl-1,4,8-triazaspiro[4,5]decan-2-one], the inhibition at 1 µM falls from 43% to 32%.

Going from `CSCCC1NC2(CCN(C(=O)c3cccc4ccccc34)CC2)N(C)C1=O` (stereo not shown) [Example 187, 1-Methyl-3-(2-methylsulfanylethyl)-8-(naphthalin-1-carbonyl)-1,4,8-triazaspiro[4,5]decan-2-one] to `CSc1ncccc1C(=O)N1CCC2(CC1)NC(Cc1ccccc1)C(=O)N2C` (stereo not shown) [Example 143, 3-Benzyl-1-methyl-8-(2-methylsulfanylpyridin-3-carbonyl)-1,4,8-triazaspiro[4,5]decan-2-one], the inhibition at 1 µM falls from 47% to 42%.

Going from `CCC(CC)C(=O)N1CCC2(CC1)NCC(=O)N2Cc1ccccc1C#N` [Example 68, 2-[8-(2-Ethylbutyryl)-2-oxo-1,4,8-triazaspiro[4,5]dec-1-ylmethyl]benzonitrile] to `COc1cccc(C(=O)N2CCC3(CC2)NCC(=O)N3Cc2ccccc2F)c1` [Example 311, 1-(2-Fluorobenzyl)-8-(3-methoxybenzoyl)-1,4,8-triazaspiro[4,5]decan-2-one], the inhibition at 1 µM falls from 75% to 49%.

Compared with `CSCCC1NC2(CCN(C(=O)c3cccnc3Oc3ccccc3)CC2)N(Cc2ccccc2F)C1=O` (stereo not shown) [Example 163, 1-(2-Fluorobenzyl)-3-(2-methylsulfanylethyl)-8-(2-phenoxypyridin-3-carbonyl)-1,4,8-triazaspiro[4,5]decan-2-one], `CSCCC1NC2(CCN(C(=O)c3cccnc3Oc3ccccc3)CC2)N(Cc2ccccc2)C1=O` (stereo not shown) [Example 171, 1-Benzyl-3-(2-methylsulfanylethyl)-8-(2-phenoxypyridin-3-carbonyl)-1,4,8-triazaspiro[4,5]decan-2-one] is lower in inhibition at 1 µM: 71% for the first, 62% for the second.

Compared with `CCOC(=O)CN1C(=O)C(Cc2ccccc2)NC12CCN(C(=O)c1ccccc1F)CC2` (stereo not shown) [Example 315, Ethyl [3-benzyl-8-(2-fluorobenzoyl)-2-oxo-1,4,8-triazaspiro[4,5]dec-1-yl]acetate], `CCCCN1C(=O)C(Cc2ccccc2)NC12CCN(C(=O)c1ccco1)CC2` (stereo not shown) [Example 153, 3-Benzyl-1-butyl-8-(furan-2-carbonyl)-1,4,8-triazaspiro[4,5]decan-2-one] is higher in inhibition at 1 µM: 61% for the first, 63% for the second.

First: CCCCN1C(=O)C(CCSC)NC12CCN(C(=O)c1cc(OC)cc(OC)c1)CC2 (stereo not shown) [Example 229, 1-Butyl-8-(3,5-dimethoxybenzoyl)-3-(2-methylsulfanylethyl)-1,4,8-triazaspiro[4,5]decan-2-one]
Second: CCCCN1C(=O)C(CCSC)NC12CCN(C(=O)C1CCCCC1)CC2 (stereo not shown) [Example 206, 1-Butyl-8-cyclohexanecarbonyl-3-(2-methylsulfanylethyl)-1,4,8-triazaspiro[4,5]decan-2-one]
The inhibition at 1 µM of the first is lower: 36% for the first, 55% for the second.

Going from `COCC(=O)N1CCC2(CC1)NC(C(C)C)C(=O)N2Cc1cccc(C#N)c1` (stereo not shown) [Example 282, 3-[3-Isopropyl-8-(2-methoxyacetyl)-2-oxo-1,4,8-triazaspiro[4,5]dec-1-ylmethyl]benzonitrile] to `CC(C)C1NC2(CCN(C(=O)c3cccc(SC(F)F)c3)CC2)N(Cc2ccccc2)C1=O` (stereo not shown) [Example 192, 1-Benzyl-8-(3-difluoromethylsulfanylbenzoyl)-3-isopropyl-1,4,8-triazaspiro[4,5]decan-2-one], the inhibition at 1 µM rises from 49% to 53%.

First: COC(=O)c1ccc(CN2C(=O)CNC23CCN(C(=O)C2CCCC2)CC3)cc1 [Example 269, Methyl 4-(8-cyclopentanecarbonyl-2-oxo-1,4,8-triazaspiro[4,5]dec-1-ylmethyl)benzoate]
Second: COC(=O)c1ccc(CN2C(=O)CNC23CCN(C(=O)C2CCCCC2)CC3)cc1 [Example 286, Methyl 4-(8-cyclohexanecarbonyl-2-oxo-1,4,8-triazaspiro[4,5]dec-1-ylmethyl)benzoate]
The inhibition at 1 µM of the first is lower: 40% for the first, 47% for the second.

Compared with `CSCCC1NC2(CCN(C(=O)c3ccco3)CC2)N(Cc2ccc(F)cc2)C1=O` (stereo not shown) [Example 147, 1-(4-Fluorobenzyl)-8-(furan-2-carbonyl)-3-(2-methylsulfanylethyl)-1,4,8-triazaspiro[4,5]decan-2-one], `COCCOCC(=O)N1CCC2(CC1)NC(CCSC)C(=O)N2Cc1ccccc1C#N` (stereo not shown) [Example 114, 2-[8-[2-(2-Methoxyethoxy)acetyl]-3-(2-methylsulfanylethyl)-2-oxo-1,4,8-triazaspiro[4,5]dec-1-ylmethyl]benzonitrile] is higher in inhibition at 1 µM: 45% for the first, 53% for the second.

Going from `O=C1NC2(CCN(C(=O)c3ccccc3Cl)CC2)NC1Cc1ccccc1` (stereo not shown) [Example 84, 3-Benzyl-8-(2-chlorobenzoyl)-1,4,8-triazaspiro[4,5]decan-2-one] to `Cn1nc(C(C)(C)C)cc1C(=O)N1CCC2(CC1)NCC(=O)N2Cc1ccccc1F` [Example 313, 8-(5-tert-Butyl-2-methyl-2H-pyrazole-3-carbonyl)-1-(2-fluorobenzyl)-1,4,8-triazaspiro[4,5]decan-2-one], the inhibition at 1 µM falls from 64% to 60%.

`C#CCN1C(=O)C(CC(C)C)NC12CCN(C(=O)c1ccc(OC(F)(F)F)cc1)CC2` (stereo not shown) [Example 234, 3-Isobutyl-1-prop-2-ynyl-8-(4-trifluoromethoxybenzoyl)-1,4,8-triazaspiro[4,5]decan-2-one] was tested, and the inhibition at 1 µM was 45%.
